Patent US12630604B2, “Methods of making chimeric antigen receptor-expressing cells” (Novartis AG, priority 2018, dated 2026)
“Also recorded” adds a separate entry of the source.

Tests used:
Type in all cases: cell-based
[1] = test system: T cells; test: ARM-BCMA CAR expression kinetics in vitro with or without AZT (FACS); conditions: 30 μM and 100 μM doses
Procedure: In contrast to TM which measures lentiviral integration of the CAR transgene after 8-9 days, in the ARM process, the lentiviral transgene may not be fully integrated and truly expressed within 24 h post lentiviral addition, as lentiviral pseudotransduction could occur (Haas D L, et al., (2000) Mol Ther; 2(1):71-80; Galla M, et al., (2004) Mol Cell; 16(2):309-15). Therefore, the BCMA-CAR expression pattern was evaluated over time by extended culturing of ARM-BCMA CAR in vitro in the presence or absence of 3′-azido-3′-deoxythymidine (AZT) to evaluate the potential pseudotransduction versus stable integration and expression of the CAR transgene. Flow cytometry (FACS) analyses were performed to detect CAR surface expression at 24 h, 48 h, 72 h, 96 h and 168 h post T cell activation and transduction with the lentiviral vector. In some cases, ARM-BCMA CAR and an aliquot of this product were frozen down immediately upon harvest for additional characterization in other assays.

[2] = test system: T cells; test: T cell differentiation status by flow cytometry (CCR7/CD45RO), cytokine process; conditions: purified T cells cultured with cytokine 24 hours, no CD3/CD28 stimulation
Procedure: The cells were immunophenotyped for T cell differentiation status and transduction of the CAR was assessed using flow cytometry. The cells were washed, viability dye was added followed by the antibody cocktail (Table 20), and the plates were incubated for 20 minutes at room temperature. After the incubation, the cells were washed twice and fixed prior to being analyzed on the BD fortessa.

[3] = test system: IL6Rβ expressing cells; test: Cell surface staining (IL6Rα/IL6Rβ and differentiation markers); conditions: after TCR engagement
From the text: Cells were harvested at indicated time points and then stained with live/dead dye (eFluro780, eBioscience), CD3 (BioLegend, clone #: OKT3), CD4 (BioLegend, clone #: OKT4), CD8 (BD Bioscience, clone #: RPA-T8), CD45RO (BioLegend, clone #: UCHL1), CCR7 (BioLegend, clone #: G043H7), CD27 (BD Horizon, clone #: L128), CD127 (BioLegend, clone #: A019D5), CD57 (BioLegend, clone #: HCD57), CD126 (BioLegend, clone #: UV4), and CD130 (R&D Systems, clone #: 28126) antibodies. The cells were acquired by FACS Fortessa and then FlowJo program was used for data analysis.

[4] = test system: T cells; test: T cell culture with cytokines after αCD3/αCD28 bead activation (expansion, size, viability); conditions: for T cell expansion: T cells activated with αCD3αCD28 beads at day 0 in presence of cytokine; for cell size and viability: after TCR engagement
Procedure: Previously frozen T cells were thawed and contacted with αCD3/αCD28 dynal beads (cell to bead ratio of 1 to 3) in the presence of indicated cytokines at day 0. From day 3, twice more T cell growth media (RPMI1640, 10% FBS, 2 mM L-glutamin, 100 μM non-essential amino acids, 1 mM sodium pyruvate, 10 mM Hepes, 55 μM β-mercaptoethanol, 10% FBS, and 100 U/ml of penicillin-streptomycin) was added to the plate with indicated cytokines (without cytokine, rhIL2 (501 U/ml, Novartis), IL6 (10 ng/ml, R&D systems), IL7 (10 ng/ml, Peprotech), IL15 (10 ng/ml, Peprotech), and IL21 (10 ng/ml, Peprotech)) at day 3, 5, 6, 9, 12, 15, and 18.

Cc1cn([C@H]2C[C@H](N=[N+]=[N-])[C@@H](CO)O2)c(=O)[nH]c1=O [AZT, 3′-azido-3′-deoxythymidine]
inhibition of CAR expression [1]: effectively inhibit CAR expression

IL-15: cytokine
maintenance of self-renewing / naïve T cells (CD45RO−CCR7+) [2]: maintained self-renewing T cells in vitro
expansion of IL6Rβ expressing cells [3]: enhanced expansion of IL6Rβ expressing cells
T cell expansion [4]: enhanced T cell expansion; also recorded: the greatest enhancement
cell size and viability [4]: did not affect cell size and viability

B1: IL7: cytokine (protein, UniProt P13232 26-177, looked up)
Interleukin-7: DCDIEGKDGKQYESVLMVSIDQLLDSMKEIGSNCLNNEFNFFKRHICDANKEGMFLFRAARKLRQFLKMNSTGDFDLHLLKVSEGTTILLNCTGQVKGRKPAALGEAQPTKSLEENKSLKEQKKLNDLCFLKRLLQEIKTCWNKILMGTKEH
T cell expansion [4]: enhanced T cell expansion
cell size and viability [4]: did not affect cell size and viability
